Like-named read-outs stand apart in the source and are kept apart here.
Key:
[1] = tested on: pERK in NCI-H358 cells; test: Cell-based pERK HTRF assay; conditions: 30 min incubation, read-out: pERK in NCI-H358 cell inhibition IC50
Procedure, shortened: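 Cells seeded at 4×10^4/well in RPMI with 10% FBS, then next day treated for 30 min with a 9-point, 3-fold series from 75 μM top concentration at 0.25% DMSO. Lysates were read for pERK by HTRF (d2/Eu cryptate antibodies) after 4–24 h at room temperature, emission at 615 nm.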

[2] = target: T1, GDP-loaded KRAS4b (amino acids 1-169) G12C/C118S protein (Homo sapiens, UniProt P01116, C118S/G12C); test: Covalent cysteine 12 modification by MALDI-TOF MS, GDP-loaded KRAS G12C; type: binding; conditions: 15 minutes reaction time point
T1 construct: KRAS4b (amino acids 1-169) G12C/C118S protein; made in house
Procedure, shortened: (§1)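 KRAS4b 1-169 G12C/C118S loaded with GDP, GppNHp or GTP was used at 1 μM in 20 mM HEPES, 150 mM NaCl, 1 mM MgCl2, pH 7.3, and incubated with compound (5 mM DMSO stock) at room temperature in the dark. % modification at 15 min is adduct peak height over total protein peak heights by linear-mode MALDI-TOF.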

[3] = target: T2, GppNHp-loaded KRAS4b (amino acids 1-169) G12C/C118S protein (Homo sapiens, UniProt P01116, C118S/G12C); test: Covalent cysteine 12 modification by MALDI-TOF MS, GppNHp-loaded KRAS G12C; type: binding; conditions: 15 minutes reaction time point
T2 construct: KRAS4b (amino acids 1-169) G12C/C118S protein; made in house
Procedure, shortened: as §1

[4] = target: T3, Avi-KRAS G12C (1-169) GppNHp/RAF1 RBD-3×FLAG (52-151) (Homo sapiens, UniProt P01116, G12C); test: Raf1 RBD-KRAS G12C-GppNHp disruption (protein:protein interaction HTRF assay); type: biochemical
T3 construct: Avi-KRAS G12C (1-169) GppNHp/RAF1 RBD-3×FLAG (52-151)
Procedure, shortened: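 HTRF measuring disruption of 50 nM Avi-KRAS G12C (1-169) loaded with GppNHp binding RAF1 RBD-3×FLAG (52-151), in pH 7.5 Tris buffer with 5 mM MgCl2, 0.1% BSA, 10% DMSO. KRAS preincubated with compound 1 h, then RBD 1 h, then detection reagents 1 h, all at room temperature. Compound titration 30-0.02 μM; activity expressed as percent of DMSO control.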

[5] = target: T4, GTP-loaded KRAS4b (amino acids 1-169) G12C/C118S protein (Homo sapiens, UniProt P01116, C118S/G12C); test: Covalent cysteine 12 modification by MALDI-TOF MS, GTP-loaded KRAS G12C; type: binding; conditions: 15 minutes reaction time point
T4 construct: KRAS4b (amino acids 1-169) G12C/C118S protein; made in house
Procedure, shortened: as §1

C=CC(=O)N1C[C@@H](F)[C@@H](Oc2nc(OC[C@@]34CCCN3C[C@H](F)C4)nc3c(F)c(-c4ccc(F)c5sc(N)c(C#N)c45)ncc23)C1 [Compound 70]
IC50 ([1]; Homo sapiens, NCI-H358, 0.5 h): ≤ 100 nM
GDP-KRAS G12C percent of modification [2]: A (percent of modification ≥70%)
GppNHp-KRAS G12C percent of modification [3]: A (percent of modification ≥70%)
IC50 [4]: ≤ 500 nM
GTP-KRAS G12C percent of modification [5]: B (50≤percent of modification <70%)

C=CC(=O)N1CC[C@@H](Oc2nc(OC[C@@]34CCCN3C[C@H](F)C4)nc3cc(-c4ccc(F)c5sc(N)c(C#N)c45)c(C(F)(F)F)nc23)C1 [Compound 55, 4-(4-(((R)-1-acryloylpyrrolidin-3-yl)oxy)-2-(((2R,7aS)-2-fluorotetrahydro-1H-pyrrolizin-7a (5H)-yl)methoxy)-6-(trifluoromethyl)pyrido[3,2-d]pyrimidin-7-yl)-2-amino-7-fluorobenzo[b]thiophene-3-carbonitrile]
IC50 ([1]; Homo sapiens, NCI-H358, 0.5 h): ≤ 100 nM
GDP-KRAS G12C percent of modification [2]: C (10%≤modification <50%)
GppNHp-KRAS G12C percent of modification [3]: C (10%≤modification <50%)
IC50 [4]: ≤ 500 nM
GTP-KRAS G12C percent of modification [5]: D (percent of modification <10%)

C=CC(=O)N1CC[C@@H](Oc2nc(OC[C@@]34CCCN3C[C@H](F)C4)nc3c(Cl)c(-c4ccc(F)c5sc(N)c(C#N)c45)ncc23)[C@H]1COC [Compound 110]
IC50 ([1]; Homo sapiens, NCI-H358, 0.5 h): ≤ 100 nM
GDP-KRAS G12C percent of modification [2]: A (percent of modification ≥70%)
GppNHp-KRAS G12C percent of modification [3]: A (percent of modification ≥70%)
IC50 [4]: ≤ 500 nM
GTP-KRAS G12C percent of modification [5]: A (percent of modification ≥70%)

C=CC(=O)N1CC[C@@H](Oc2nc(OC[C@@]34CCCN3C[C@H](F)C4)nc3cc(-c4ccc(F)c5sc(N)c(C#N)c45)c(F)cc23)[C@@H]1COC [Compound 122]
IC50 ([1]; Homo sapiens, NCI-H358, 0.5 h): > 1000 nM
GDP-KRAS G12C percent of modification [2]: C (10%≤modification <50%)
GppNHp-KRAS G12C percent of modification [3]: D (percent of modification <10%)
IC50 [4]: > 20000 nM
GTP-KRAS G12C percent of modification [5]: D (percent of modification <10%)

C=CC(=O)N1CC[C@@H](Oc2nc(OC[C@@]34CCCN3C[C@H](F)C4)nc3c(F)c(-c4ccc(F)c5sc(N)nc45)ccc23)[C@H]1C [Compound 88]
IC50 ([1]; Homo sapiens, NCI-H358, 0.5 h): 100 to 1000 nM
GDP-KRAS G12C percent of modification [2]: C (10%≤modification <50%)
GppNHp-KRAS G12C percent of modification [3]: C (10%≤modification <50%)
IC50 [4]: ≤ 500 nM
GTP-KRAS G12C percent of modification [5]: C (10%≤modification <50%)

C=CC(=O)N1CC[C@@H](Oc2nc(OC[C@@]34CCCN3C[C@H](F)C4)nc3c(F)c(-c4ccc(F)c5sc(N)c(C#N)c45)ncc23)[C@H]1C [Compound 73, 4-(4-(((2R,3R)-1-acryloyl-2-methylpyrrolidin-3-yl)oxy)-8-fluoro-2-(((2R,7aS)-2-fluorotetrahydro-1H-pyrrolizin-7a (5H)-yl)methoxy)pyrido[4,3-d]pyrimidin-7-yl)-2-amino-7-fluorobenzo[b]thiophene-3-carbonitrile]
IC50 ([1]; Homo sapiens, NCI-H358, 0.5 h): ≤ 100 nM
GDP-KRAS G12C percent of modification [2]: A (percent of modification ≥70%)
GppNHp-KRAS G12C percent of modification [3]: A (percent of modification ≥70%)
IC50 [4]: ≤ 500 nM
GTP-KRAS G12C percent of modification [5]: A (percent of modification ≥70%)

C=CC(=O)N1C[C@H](Oc2nc(OC[C@@]34CCCN3C[C@H](F)C4)nc3c(F)c(-c4ccc(F)c5sc(N)c(C#N)c45)c(C(F)(F)F)cc23)[C@@H](F)C1 [Compound 67]
IC50 ([1]; Homo sapiens, NCI-H358, 0.5 h): ≤ 100 nM
GDP-KRAS G12C percent of modification [2]: B (50≤percent of modification <70%)
GppNHp-KRAS G12C percent of modification [3]: B (50≤percent of modification <70%)
IC50 [4]: ≤ 500 nM
GTP-KRAS G12C percent of modification [5]: B (50≤percent of modification <70%)

C=CC(=O)N1CC[C@@H](Oc2nc(OC[C@@]34CCCN3C[C@H](F)C4)nc3c(F)c(-c4ccc(F)c5sc(N)c(C#N)c45)c(C(F)(F)F)cc23)[C@H]1CO [Compound 65]
IC50 ([1]; Homo sapiens, NCI-H358, 0.5 h): ≤ 100 nM
GDP-KRAS G12C percent of modification [2]: B (50≤percent of modification <70%)
GppNHp-KRAS G12C percent of modification [3]: A (percent of modification ≥70%)
IC50 [4]: ≤ 500 nM
GTP-KRAS G12C percent of modification [5]: B (50≤percent of modification <70%)

C=CC(=O)N1CC[C@@H](Oc2nc(OC[C@@]34CCCN3C[C@H](F)C4)nc3c(F)c(-c4ccc(F)c5sc(N)c(C#N)c45)ccc23)C1 [Compound 51]
IC50 ([1]; Homo sapiens, NCI-H358, 0.5 h): ≤ 100 nM
GDP-KRAS G12C percent of modification [2]: A (percent of modification ≥70%)
GppNHp-KRAS G12C percent of modification [3]: A (percent of modification ≥70%)
IC50 [4]: ≤ 500 nM
GTP-KRAS G12C percent of modification [5]: A (percent of modification ≥70%)

C=CC(=O)N1CC[C@@H](Oc2nc(OC[C@@]34CCCN3C[C@H](F)C4)nc3cc(-c4ccc(F)c5sc(N)c(C#N)c45)c(F)cc23)[C@H]1COC [Compound 113]
IC50 ([1]; Homo sapiens, NCI-H358, 0.5 h): > 1000 nM
GDP-KRAS G12C percent of modification [2]: C (10%≤modification <50%)
GppNHp-KRAS G12C percent of modification [3]: D (percent of modification <10%)
IC50 [4]: > 20000 nM
GTP-KRAS G12C percent of modification [5]: D (percent of modification <10%)

C=CC(=O)N1C[C@H](Oc2nc(OC[C@@]34CCCN3C[C@H](F)C4)nc3c(F)c(-c4ccc(F)c5sc(N)c(C#N)c45)c(C(F)(F)F)cc23)C[C@@H]1COC (atropisomer, axis not shown) [Compound 85]
IC50 [1]: ≤ 100 nM
GDP-KRAS G12C percent of modification [2]: C (10%≤modification <50%)
GppNHp-KRAS G12C percent of modification [3]: C (10%≤modification <50%)
IC50 [4]: ≤ 500 nM
GTP-KRAS G12C percent of modification [5]: C (10%≤modification <50%)

C=CC(=O)N1CC[C@@H](Oc2nc(OC[C@@]34CCCN3C[C@H](F)C4)nc3c(F)c(-c4ccc(F)c5sc(N)c(C#N)c45)c(C(F)(F)F)cc23)[C@H]1C (single isomer, unassigned) [Compound 64]
IC50 [1]: > 1000 nM
GDP-KRAS G12C percent of modification [2]: D (percent of modification <10%)
GppNHp-KRAS G12C percent of modification [3]: D (percent of modification <10%)
IC50 [4]: > 20000 nM
GTP-KRAS G12C percent of modification [5]: D (percent of modification <10%)

C=CC(=O)N1C[C@H](Oc2nc(OC[C@@]34CCCN3C[C@H](F)C4)nc3cc(-c4ccc(F)c5sc(N)c(C#N)c45)c(C(F)(F)F)nc23)C[C@H]1C [Compound 84]
IC50 [1]: ≤ 100 nM
GDP-KRAS G12C percent of modification [2]: C (10%≤modification <50%)
GppNHp-KRAS G12C percent of modification [3]: C (10%≤modification <50%)
IC50 [4]: ≤ 500 nM
GTP-KRAS G12C percent of modification [5]: C (10%≤modification <50%)

C=CC(=O)N1CC[C@@H](Oc2nc(OC[C@@]34CCCN3C[C@H](F)C4)nc3c(F)c(-c4ccc(F)c5sc(N)c(C#N)c45)ccc23)[C@@H]1C [Compound 118]
IC50 ([1]; Homo sapiens, NCI-H358, 0.5 h): > 1000 nM
GDP-KRAS G12C percent of modification [2]: A (percent of modification ≥70%)
GppNHp-KRAS G12C percent of modification [3]: D (percent of modification <10%)
IC50 [4]: 500 to 5000 nM
GTP-KRAS G12C percent of modification [5]: D (percent of modification <10%)

C=CC(=O)N1CC[C@@H](Oc2nc(OC[C@@]34CCCN3C[C@H](F)C4)nc3c(F)c(-c4ccc(F)c5sc(N)c(C#N)c45)c(C(F)(F)F)cc23)C1 [Compound 46]
IC50 ([1]; Homo sapiens, NCI-H358, 0.5 h): ≤ 100 nM
GDP-KRAS G12C percent of modification [2]: B (50≤percent of modification <70%)
GppNHp-KRAS G12C percent of modification [3]: B (50≤percent of modification <70%)
IC50 [4]: ≤ 500 nM
GTP-KRAS G12C percent of modification [5]: B (50≤percent of modification <70%)

C=CC(=O)N1CC[C@@H](Oc2nc(OC[C@@]34CCCN3C[C@H](F)C4)nc3c(Cl)c(-c4ccc(F)c5sc(N)c(C#N)c45)ncc23)[C@@H]1COC [Compound 129]
IC50 ([1]; Homo sapiens, NCI-H358, 0.5 h): 100 to 1000 nM
GDP-KRAS G12C percent of modification [2]: B (50≤percent of modification <70%)
GppNHp-KRAS G12C percent of modification [3]: A (percent of modification ≥70%)
IC50 [4]: ≤ 500 nM
GTP-KRAS G12C percent of modification [5]: C (10%≤modification <50%)

C=CC(=O)N1C[C@H](Oc2nc(OC[C@@]34CCCN3C[C@H](F)C4)nc3cc(-c4ccc(F)c5sc(N)nc45)c(C(F)(F)F)cc23)[C@@H](F)C1 [Compound 59]
IC50 ([1]; Homo sapiens, NCI-H358, 0.5 h): ≤ 100 nM
GDP-KRAS G12C percent of modification [2]: A (percent of modification ≥70%)
GppNHp-KRAS G12C percent of modification [3]: B (50≤percent of modification <70%)
IC50 [4]: ≤ 500 nM
GTP-KRAS G12C percent of modification [5]: C (10%≤modification <50%)

C=CC(=O)N1C[C@H](Oc2nc(OC[C@@]34CCCN3C[C@H](F)C4)nc3c(F)c(-c4ccc(F)c5sc(N)c(C#N)c45)c(C(F)(F)F)cc23)C[C@H]1COC (atropisomer, axis not shown) [Compound 90]
IC50 [1]: > 1000 nM
GDP-KRAS G12C percent of modification [2]: D (percent of modification <10%)
GppNHp-KRAS G12C percent of modification [3]: D (percent of modification <10%)
IC50 [4]: > 20000 nM
GTP-KRAS G12C percent of modification [5]: D (percent of modification <10%)
